Results taken from patent US11612592B2, “Liquid formulations containing picosulfate and magnesium citrate” (FERRING B.V., priority 2015, dated 2023).
“Also recorded” adds a separate entry of the source.

Experiments:
[1] = Freeze-thaw cycle accelerated method for predicting precipitation (height of precipitate in tube); assay type: physicochemical; details: for Effectiveness to inhibit precipitation: 63 mmol in 150 mL (420 mM), five freeze-thaw cycles; for Effectiveness as precipitation inhibitor compared with malic acid: 31 mmol in 150 mL (210 mM)
Protocol: A picosulfate formulation containing sodium picosulfate (10 mg), magnesium oxide (3.5 g), citric acid (12 g), and KHCO3 (0.65 g) and, optionally, a precipitation inhibitor (or combination of inhibitors) to be tested, dissolved in water (150 mL) is prepared. The pH is adjusted to the range 4.7-5.1 using aq. NaOH and aq. HCl solutions. The solution is filtered through a 0.22 μm PTFE filter under vacuum.
Two portions of 10 mL of the formulation test solution are placed in tapered, graduated, centrifuge tubes (15 mL) and subjected to five freeze-thaw cycles in which the solutions are frozen at −20° C. for at least 12 h and then thawed at 20-25° C. for 8 h. At the end of each cycle, the tube is inspected for precipitation at the bottom of the tube. If precipitation is present, the amount of precipitate is quantitated by measuring the height (in mm) of the precipitate in the centrifuge tube using a ruler.
The amount of precipitate (if any) is quantitated by measuring the height (in mm) of the precipitate in the centrifuge tube using a ruler at the end of each freeze thaw cycle.
If a polymer is included in the formulation, the polymer (75-150 mg) is dissolved in water (150 mL) until a clear solution (containing the polymer at a concentration of […]) is formed. A sachet of PREPOPIK® sodium picosulfate/magnesium citrate granules (containing sodium picosulfate (10 mg), magnesium oxide (3.5 g), citric acid (12 g), KHCO3 (0.65 g), Na-saccharin and orange flavoring) is added. A carboxylic acid (31-63 mmol) is added, and the pH is adjusted to the range 4.7-5.1 using aq. NaOH and aq. HCl solutions. The solution is filtered through a 0.22 μm PTFE filter under vacuum.

[2] = Time to precipitation on storage under ambient conditions (20-25 °C); assay type: physicochemical; details: Table 3 data; 0.42 M
Protocol: A liquid formulation containing sodium picosulfate and magnesium citrate was prepared by dissolving a sachet of commercially available PREPOPIK® containing sodium picosulfate (10 mg), magnesium oxide (3.5 g), citric acid (12 g), KHCO3 (0.65 g), and orange or berry flavoring in water (150 mL). The solution is stored under ambient conditions and observed periodically until precipitation from the solution is noted.
A liquid formulation containing sodium picosulfate and magnesium citrate stabilized with malic acid was prepared using the ingredients listed in Table 1. The solution is stored under ambient conditions and observed periodically for precipitation from the solution. No precipitation is observed within 340 days.
As a reference, commercially available sodium picosulfate/magnesium oxide/citric acid (PICOSOLUTION™, Pharmbio Co., Ltd.) is also stored under ambient conditions and observed periodically for precipitation from the solution. No precipitation is observed within 645 days.
The remainder of the formulation test solution may be stored at ambient temperature (e.g., 20-25° C.) to determine the stability under non-accelerated conditions.
Samples of each of the solutions are also stored at ambient temperature (20-25° C.) and monitored for the appearance of precipitation. […]

Compound	Effectiveness to inhibit precipitation [1]	Concentration of malic acid needed for prolonged stability [2] [mmol per 150 mL]	Effectiveness as precipitation inhibitor compared with malic acid [1]
O=C(O)CC(O)C(=O)O (stereo not drawn) [malic acid]	very effective; also recorded: effective to inhibit precipitation	≥ 63	–
O=C(O)CC(=O)O [malonic acid]	very effective; also recorded: effective to inhibit precipitation	–	more effective as a precipitation inhibitor than malic acid
O=C(O)C(O)C(O)C(=O)O (stereo not drawn) [tartaric acid]	very effective; also recorded: effective to inhibit precipitation	–	of comparable effectiveness
